Test results as given in US5364944A, “Substituted benzoylbenzene-, biphenyl- and 2-oxazole- alkanoic acid compounds” (American Home Products Corporation, priority 1993, dated 1994).
Where a name gives a salt, the structure may show the parent alone.

What was measured:
LTB4 = assay: Reverse passive Arthus pleurisy assay, inflammatory mediator release: LTB4; format: in vivo, rat (male Lewis); details: for % Inh LTB4: 10 mg/kg p.o., standard drugs; for % Inhibition of LTB4 Synthesis: 25 mg/kg p.o., 3 hours before challenge
Description: The compounds of the invention are further tested in the reverse passive Arthus pleurisy assay to evaluate their effectiveness in inflammatory mediator release and/or the fluid and cellular phases of an inflammatory response.
(§1) This assay is carried out as follows:
A reverse passive Arthus reaction is induced in the pleural cavity of male Lewis rats (150-200 g; fasted overnight prior to use) by the intravenous administration of bovine serum albumin (BSA; 4 mg/0.2 ml) followed 30 minutes later by the injection of rabbit anti-BSA (1 mg/0.2 ml; lyophilized IgG fraction; Organon Teknika, West Chester, Pa.) into the right pleural space under halothane anesthesia. […] Animals are sacrificed at either the time of peak eicosanoid production (i.e. 5 minutes after anti-BSA for immunoreactive TxB2 10 minutes for immunoreactive LTB4, 20 minutes for immunoreactive LTC4) or at the time of peak neutrophil infiltration (4 hours after anti-BSA) by CO2 inhalation. The pleural cavity is then exposed, the fluid exudate removed by gentle vacuum aspiration and the volume of exudate is recorded. For the determination of cellular infiltration, the pleural cavity is rinsed with 3 ml of 0.1% EDTA in sterile saline, and the recovered wash is pooled with the exudate. Cell number is determined on a model ZBI Coulter counter. For determination of eicosanoid production, undiluted pleural exudate is microfuged and the supernatant is extracted with ethanol (8-10 times volume). Extracts are either stored at -20° C., or are evaporated to dryness under a stream of N2 and reconstituted in radioimmunoassay (RIA) buffer.
Eicosanoids are quantitated by RIA according to the procedure specified by the RIA kit manufacturer (Advanced Magnetics, Cambridge, Mass.). Briefly, 100 μl of ^3 H-labeled eicosanoid and 100 μl of specific antibody are sequentially added to 100 μl of extracted pleural exudate in BGG -phosphate buffer which contains 0.01 M phosphate, 0.1% bovine gamma globulin and 0.1% sodium azide at pH 7.0. Antibody-bound eicosanoid is separated from unbound eicosanoid by the addition of 750 μl of dextran (0.4%)-coated charcoal (0.4% Norit A) containing 0.1% sodium azide. The mixture is centrifuged at 2000 RPM at 5° C. for 15 minutes to pellet the charcoal and adsorbed unbound eicosanoid. Antibody-bound labeled eicosanoid is quantitated by counting in a liquid scintillation counter, and is correlated to concentration by a standard curve.
Inflammatory cells are expressed as 10^6 cells/ml, pleural exudate is expressed as ml of fluid, and the amount of eicosanoids in the pleural cavity is expressed as ng/ml of exudate. Mean ±S.E.M. is determined for each group. Percent inhibition (% I) of cell number, exudate volume and eicosanoid production is calculated for vehicle-treated control groups, and the responses in drug-treated rats are then expressed as the mean % I of the control. […] Exp. Ther., 96, 99-113 (1949).

[1] = system: 5-lipoxygenase in human whole blood; assay: Inhibition of 5-lipoxygenase in human whole blood (LTB4); format: cell-based
Description: The assay of this Example measures the ability of the compounds tested to inhibit 5-lipoxygenase in human whole blood.
as §1
Blood is obtained in 50-100 ml quantities from male donors. White blood cell counts and differentials are made. Two ml of blood are placed in a 15 ml polypropylene test tube. Compounds are solubilized in dimethylsulfoxide and diluted 1:10 in 10% bovine serum albumin in phosphate buffered saline, pH 7.4 resulting in a final dimethylsulfoxide concentration of 0.1% in the blood. Then, compounds are added to the blood in a shaking water bath at 37° C. for 10 minutes prior to the addition of 30 μM calcium ionophore (A23187; Sigma). After ionophore administration, whole blood samples are mixed and incubated for 20 minutes at […] in a shaking water bath. Incubation is terminated by placing samples in an ice bath and immediately adding ethylene glycol-bis-(β-aminoethyl ether)-N,N,N',N'-tetraacetic acid (10 mM). Samples are mixed and centrifuged at 1200×g for 15 minutes at 4° C. Preparation of samples for evaluation by RIA or ELISA is carried out by the following protocol. Plasma is removed from sample tubes, placed in 15 ml polypropylene test tubes containing 8 ml methanol, and then vortexed to precipitate protein. Samples are stored at -70° C. overnight. The next day, samples are centrifuged at 200×g for 15 minutes at 4° C. to pellet the precipitate. Samples are dried in a Savant speed vac concentrator, reconstituted to original volume with ice cold RIA or ELISA buffer, and stored at -70° C. until assayed. The assay for eicosanoids (LTB4, TxB2, and PGE2) is performed as described by the manufacturer of the [^3 H]-RIA kit or ELISA kit (LTB4 -Amersham, TxB2 and PGE2 - Caymen Chemical).
The total eicosanoid level in 2 ml of blood is calculated and reported as ng/10^6 neutrophils. […] Drug effects are expressed as percent change from control values.
Compounds tested in vitro are solubilized in dimethylsulfoxide and diluted 1:10 in 10% bovine serum albumin in phosphate buffer saline resulting in a final dimethylsulfoxide concentration of 0.1% in the blood.

[2] = biological target: T1, LTD4-induced contractions of isolated guinea pig trachea (Cavia porcellus, UniProt Q2NNR5); assay: In vitro isolated guinea pig trachea assay, LTD4 antagonist activity; design: species or system guinea pig (male Hartley)
T1 construct: isolated guinea pig trachea; from tissue; host or cells: tracheal rings of male Hartley guinea pigs
T1 sequence (Q2NNR5 1-340): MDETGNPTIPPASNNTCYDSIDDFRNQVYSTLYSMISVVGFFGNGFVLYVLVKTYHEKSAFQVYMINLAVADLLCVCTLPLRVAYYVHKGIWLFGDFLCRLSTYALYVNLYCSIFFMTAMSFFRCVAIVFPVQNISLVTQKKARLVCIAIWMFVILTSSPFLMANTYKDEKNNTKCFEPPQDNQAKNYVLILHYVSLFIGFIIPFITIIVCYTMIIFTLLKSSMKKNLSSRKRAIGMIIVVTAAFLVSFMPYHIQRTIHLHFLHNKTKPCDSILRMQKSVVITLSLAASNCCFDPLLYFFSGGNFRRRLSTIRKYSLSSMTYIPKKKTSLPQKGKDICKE
Description: The LTD4 antagonist activity of the compounds of the invention is assessed in the in vitro isolated guinea pig trachea assay. This assay is carried out as follows: Male Hartley guinea pigs (350-400 g) are euthanized by a blow to the head, the neck is opened and the trachea removed. The trachea is maintained in aerated physiological salt solution, cleared of connective tissue and fat and cut into rings approximately 2 mm in width (usually containing two cartilaginous segments per ring). Two pieces of silk suture are then passed through the lumen of the tracheal ting and are tied around the cartilage, one on each side of the trachealis muscle. The tracheal ring is suspended between a glass hook and a force displacement transducer in a 10 ml organ bath for measurement of isometric tension. […] The tracheal rings are maintained at 2 g resting tension and equilibrated for 45 minutes (with frequent washing and readjustment of resting tension). The tracheal […] contracted by the addition of carbachol (3×10^-6 M), to determine tissue responsiveness and establish a reference contraction. On attainment of a stable level of contraction (approximately 30 minutes), the tissues are washed several times until baseline tension has been restored and the re-equilibrated for 30 minutes. The tissues are then incubated for 45 minutes with a test antiagonist (either 1×10^-6 M or 1×10^-5 M) or 10 μl of an appropriate solvent control (control, nontreated). One tissue in each group serves as the control. Twenty minutes prior to the construction of the LTD4 cumulative concentration-response curve, L-[…]×10^-2 M final bath concentration) is added to inhibit bioconversion of LTD4 to LTE4. Only one LTD4 concentration-response curve is constructed in each tissue. All responses to LTD4 in an individual tissue are measured as a percentage of the reference contraction of that tissue to carbachol. LTD4 antagonist activity is determined by comparison of the concentration response curves of LTD4 in the presence and absence of antagonist. Assessment of the relative rightward shift of the antagonist treated curve relative to the solvent (control) treated tissue is calculated as a concentration ratio (Eq. A) and used in subsequent calculations to derive an antagonist pKB value (Eqs. B and C). […] If a compound is found to be active and/or depress the maximal response to LTD4, then a range of concentrations of the test compound should be used generating multiple concentration ratios which would then be used to perform a Schild analysis, and determination of a pA2 value where appropriate.

[3] = reference leukotriene antagonists

O=C(O)Cc1ccccc1Nc1c(Cl)cccc1Cl [Diclofenac, reference compound]
% Inh LTB4 (LTB4): 0%

O=C(O)CCc1nc(-c2ccc(OCc3ccc4ccccc4n3)cc2)c(-c2ccccc2)o1 [Example 5, 5-Phenyl-4-[4-(2-Quinolinylmethoxy)phenyl]-2-oxazole propanoic acid]
% Inhibition of LTB4 ([1]; at 25 μM): 11% | Kb ([2]; 1 × 10^-5 M): 0.316 µM

CN(O)C(=O)Cc1ccc(-c2ccc(OCc3ccc4ccccc4n3)cc2)c(F)c1 [Example 8, N-Hydroxy-N-methyl-2-fluoro-4'-(2-quinolinylmethoxy)-[1,1'-biphenyl]-4-acetamide]
IC50 [1]: 0.53 µM | % Inhibition of LTB4 ([1]; at 25 μM): 94%

O=C(O)CCc1nc(-c2ccc(OCc3ccc4ccccc4n3)cc2)c(-c2ccccc2)o1 [Example 10]
% Inhibition of LTB4 Synthesis (LTB4): 65%

O=C(Cc1ccc(-c2ccc(OCc3nc4ccccc4s3)cc2)cc1)NO [Example 14, N-Hydroxy-4'-(2-benzothiazolylmethoxy)[1,1'-biphenyl]-4-acetamide]
% Inhibition of LTB4 ([1]; at 25 μM): 5% | Kb ([2]; 1 × 10^-5 M): > 7.94 µM

CC(C(=O)N(C)O)c1ccc(-c2ccc(OCc3nc4ccccc4s3)cc2)cc1 (stereo not drawn) [Example 16, N-Hydroxy-N,α-dimethyl-4'-(2-benzothiazolylmethoxy)[1,1'-biphenyl]-4-acetamide]
% Inhibition of LTB4 Synthesis (LTB4): 46% | IC50 [1]: 8.3 µM | % Inhibition of LTB4 ([1]; at 25 μM): 72%

CN(O)C(=O)Cc1ccc(-c2ccc(OCc3csc(-c4ccccc4)n3)cc2)cc1 [Example 19, N-Hydroxy-N-methyl-4'-[(2-phenylthiazol-4-yl)methoxy][1,1'-biphenyl]-4-acetamide, sodium salt, sesquihydrate]
% Inhibition of LTB4 ([1]; at 25 μM, sodium salt, sesquihydrate): 83%

CN(O)C(=O)C(Cc1csc(-c2ccccc2)n1)c1ccc(-c2ccc(OCc3csc(-c4ccccc4)n3)cc2)cc1 (stereo not shown) [Example 25]
Kb ([2]; 1 × 10^-5 M): > 7.94 µM

CN(O)C(=O)Cc1ccc(-c2ccc(OCc3csc(-c4ccccc4)n3)cc2)c(F)c1 [Example 27]
IC50 [1]: 1.3 µM | % Inhibition of LTB4 ([1]; at 25 μM): 69%

CN(O)C(=O)Cc1ccc(-c2ccc(OCc3ccccn3)cc2)c(F)c1 [Example 28, 2-Fluoro-N-hyroxy-N-methyl-4'-(2-pyridinylmethoxy)[1,1'-biphenyl]-4-acetamide]
IC50 [1]: 2.3 µM | % Inhibition of LTB4 ([1]; at 10 μM): 66% | Kb ([2]; 1 × 10^-5 M): > 3.98 µM

CN(O)C(=O)Cc1ccc(-c2ccc(OCc3nc4ccccc4n3C)cc2)c(F)c1 [Example 29, 2-[2-Fluoro-4'-(1-methyl-1H-benzimidazol-2-ylmethoxy)biphenyl-4-yl]-N-hydroxy-N-methyl-4-acetamide]
IC50 [1]: 0.7 µM | % Inhibition of LTB4 ([1]; at 10 μM): 74% | Kb ([2]; 1 × 10^-5 M): 0.631 µM

CC(=O)N(O)C(C)c1ccc(-c2ccc(OCc3nc4ccccc4s3)cc2)cc1 (stereo not shown) [Example 34, N-{1-[4'-(Benzothiazol-2-ylmethoxy)-biphenyl4-yl]-ethyl}-N-hydroxy-acetamide]
% Inhibition of LTB4 ([1]; at 10 μM): 36% | Kb ([2]; 1 × 10^-5 M): > 10 µM

CC(c1ccc(-c2ccc(OCc3nc4ccccc4o3)cc2)cc1)N(O)C(N)=O (stereo not shown) [Example 35]
% Inhibition of LTB4 ([1]; at 10 μM): 51% | Kb ([2]; 1 × 10^-5 M): > 5.01 µM

CC(=O)N(O)C(C)c1ccc(-c2ccc(OCc3nc4ccccc4o3)cc2)cc1 (stereo not shown) [Example 36, N-{1-[4'-(Benzoxazol-2-ylmethoxy)-biphenyl-4-yl]ethyl}-N-hydroxy-acetamide]
% Inhibition of LTB4 ([1]; at 10 μM): 77%

CC(=O)N(O)C(C)c1ccc(-c2ccc(OCc3nc4ccccc4n3C)cc2)cc1 (stereo not shown) [Example 37]
% Inhibition of LTB4 ([1]; at 10 μM): 61% | Kb ([2]; 1 × 10^-5 M): > 3.16 µM

CC(c1ccc(-c2ccc(OCc3csc(-c4ccccc4)n3)cc2)cc1)N(O)C(N)=O (stereo not shown) [Example 38, 1-{1-[4'-(2-Phenylthiazol-4-ylmethoxy)-biphenyl4-yl]-ethyl}-1-hydroxy-urea]
% Inhibition of LTB4 ([1]; at 10 μM): 46%

CC(=O)N(O)C(C)c1ccc(-c2ccc(OCc3csc(-c4ccccc4)n3)cc2)cc1 (stereo not shown) [Example 39, N-{1-[4'-(2-Phenylthiazol-4-ylmethoxy)-biphenyl-4-yl]-ethyl}-N-hydroxy-acetamide]
% Inhibition of LTB4 ([1]; at 10 μM): 43%

CC(c1ccc(-c2ccc(OCc3nc4ccccc4s3)cc2)c(F)c1)N(O)C(N)=O (stereo not shown) [Example 40, 1-{1-[4'-(Benzothiazol-2-ylmethoxy)-2-fluoro(1,1'-biphenyl)-4-yl]ethyl}-1-hydroxy-urea]
% Inhibition of LTB4 ([1]; at 10 μM): 47%

CCCc1c(OCCCCc2nnn[nH]2)ccc(C(C)=O)c1O [Ly-171,883, reference compound]
Kb [2, 3]: 0.0363 µM

O=S(=O)(Nc1cccc(OCc2ccc3ccccc3n2)c1)C(F)(F)F [Wy-48,252, reference compound]
Kb [2, 3]: 0.126 µM

CC(C(=O)O)c1cccc(C(=O)c2ccccc2)c1 (stereo not shown) [ketoprofen, reference compound]
% Inh LTB4 (LTB4): 35%
